Data on ten compounds can be found in US7910751B2, “Heterocyclidene acetamide derivative” (Mochida Pharmaceutical Co., Ltd., priority 2005, dated 2011).

Each structure is given as a SMILES string.

T1 sequence (Q8NER1 whole entry): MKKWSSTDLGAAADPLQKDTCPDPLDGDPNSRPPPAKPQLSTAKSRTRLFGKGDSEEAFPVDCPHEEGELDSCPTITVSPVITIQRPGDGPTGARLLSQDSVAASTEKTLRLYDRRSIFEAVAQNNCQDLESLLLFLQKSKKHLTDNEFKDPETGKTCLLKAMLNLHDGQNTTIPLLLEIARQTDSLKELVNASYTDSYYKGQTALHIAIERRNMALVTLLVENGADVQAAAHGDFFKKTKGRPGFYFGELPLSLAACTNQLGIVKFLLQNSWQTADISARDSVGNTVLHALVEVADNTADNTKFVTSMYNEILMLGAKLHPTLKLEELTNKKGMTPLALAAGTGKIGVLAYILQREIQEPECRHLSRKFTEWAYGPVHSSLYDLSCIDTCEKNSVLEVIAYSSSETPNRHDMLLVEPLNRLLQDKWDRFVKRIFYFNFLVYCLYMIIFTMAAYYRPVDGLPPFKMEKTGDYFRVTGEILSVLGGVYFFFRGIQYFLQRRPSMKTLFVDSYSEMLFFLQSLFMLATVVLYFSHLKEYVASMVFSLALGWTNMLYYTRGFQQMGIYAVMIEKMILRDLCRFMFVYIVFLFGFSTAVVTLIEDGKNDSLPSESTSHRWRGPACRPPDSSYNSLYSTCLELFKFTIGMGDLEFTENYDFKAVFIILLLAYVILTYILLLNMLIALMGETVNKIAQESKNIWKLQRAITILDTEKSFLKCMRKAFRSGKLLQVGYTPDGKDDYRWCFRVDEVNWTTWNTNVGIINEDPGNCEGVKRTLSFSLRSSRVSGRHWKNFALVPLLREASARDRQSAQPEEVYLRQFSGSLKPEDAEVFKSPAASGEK

The experiment has as its target T1, human TRPV1 (Homo sapiens, UniProt Q8NER1).
T1 construct: expressed in transfected cells; host or cells: CHO-K1
Put plainly: Measurement of capsaicin-induced Ca influx in human TRPV1 transformed CHO cell line using FDSS-6000. The settings on record: concentration at which the capsaicin concentration-reaction curve is shifted two times to the right, human TRPV1 transformed CHO cells. In kind it is cell-based.
On to `Cn1ccc2cc(NC(=O)/C=C3\CCCOc4cc(C(F)(F)F)ccc43)ccc21` [Example 149, (E)-2-(8-trifluoromethyl-3,4-dihydrobenzo[b]oxepin-5(2H)-ylidene)-N-(1-methylindol-5-yl)acetamide], for which the “A2 VALUE” is “A (compounds of the present invention having an A2 value of less than 100 nM are represented by A)”.
Next, `Cc1cc(=O)oc2cc(NC(=O)/C=C3\CCCOc4cc(C(F)(F)F)ccc43)ccc12` [Example 21, (E)-2-(8-trifluoromethyl-3,4-dihydrobenzo[b]oxepin-5(2H)-ylidene)-N-(4-methyl-2-oxo-2H-chromen-7-yl)acetamide]: “B (compounds having an A2 value of 100 nM or more are represented by B)”; `COCCN1CCCc2ccc(NC(=O)/C=C3\CCCOc4cc(C(F)(F)F)ccc43)cc21` [Example 130, (E)-2-(8-trifluoromethyl-3,4-dihydrobenzo[b]oxepin-5(2H)-ylidene)-N-(1-(2-methoxyethyl)-1,2,3,4-tetrahydroquinolin-7-yl)acetamide]: “A (compounds of the present invention having an A2 value of less than 100 nM are represented by A)”; `CN1CC(O)Cc2c(NC(=O)/C=C3\CCCOc4cc(C(F)(F)F)ccc43)cccc21` (stereo not shown) [Example 69, (E)-2-(8-trifluoromethyl-3,4-dihydrobenzo[b]oxepin-5-(2H)-ylidene)-N-(1-methyl-3-hydroxy-1,2,3,4-tetrahydroquinolin-5-yl)acetamide]: “A (compounds of the present invention having an A2 value of less than 100 nM are represented by A)”.
Turning to `O=C(/C=C1\CCCOc2cc(C(F)(F)F)ccc21)Nc1cccc2c1CC(O)CN2` (stereo not shown) [Example 219, (E)-2-(8-trifluoromethyl-3,4-dihydrobenzo[b]oxepin-5(2H)-ylidene)-N-(3-hydroxy-1,2,3,4-tetrahydroquinolin-5-yl)acetamide], the “A2 VALUE” was “A (compounds of the present invention having an A2 value of less than 100 nM are represented by A)”.
Next, `CC(C)c1ccc2c(c1)OCC/C2=C\C(=O)Nc1cccc2c1CC(O)CN2` (stereo not shown) [Example 207, (E)-2-(7-isopropyl-chroman-4-ylidene)-N-(3-hydroxy-1,2,3,4-tetrahydroquinolin-5-yl)acetamide]: “A (compounds of the present invention having an A2 value of less than 100 nM are represented by A)”.
The same measure for `O=C(/C=C1\CCN(C(=O)C2CCC(F)(F)CC2)c2cc(C(F)(F)F)ccc21)Nc1cccc2c1CC(O)CC2` (stereo not shown) [Example 85, (E)-2-(1-(4,4-difluorocyclohexanecarbonyl)-7-trifluoromethyl-2,3-dihydroquinolin-4(1H)-ylidene)-N-(7-hydroxy-5,6,7,8-tetrahydronaphthalen-1-yl)acetamide]: “A (compounds of the present invention having an A2 value of less than 100 nM are represented by A)”.
As to `CCCCC(=O)N1CCC/C(=C\C(=O)Nc2ccc3cccnc3c2)c2ccc(C(F)(F)F)cc21` [Example 192, (E)-2-(1-pentanoyl-8-trifluoromethyl-1,2,3,4-tetrahydro-5H-benzo[b]azepin-5-ylidene)-N-(quinolin-7-yl)acetamide], the “A2 VALUE” was “A (compounds of the present invention having an A2 value of less than 100 nM are represented by A)”.
For the compound `O=C(/C=C1\CCOc2ccccc21)Nc1ccc2c(c1)OCCO2` [Example 1, (E)-2-(chroman-4-ylidene)-N-(2,3-dihydrobenzo[b][1,4]dioxin-6-yl)acetamide], the “A2 VALUE” was “B (compounds having an A2 value of 100 nM or more are represented by B)”.
Next, `O=C(/C=C1\CCCOc2cc(C(F)(F)F)ccc21)Nc1ccc(Oc2ccccc2)nc1` [Example 22, (E)-2-(8-trifluoromethyl-3,4-dihydrobenzo[b]oxepin-5(2H)-ylidene)-N-(6-phenoxypyridin-3-yl)acetamide]: “B (compounds having an A2 value of 100 nM or more are represented by B)”.
